Laboratory results taken from patent US9695127B2, “Compounds for treating HIV and methods for using the compounds” (University of Pittsburgh—Of the Commonwealth System of …, priority 2012, dated 2017).

Experiments:
[1] = tested on: HIV-1 NL4-3; experiment: HIV-1 infectivity in TZM-b1 reporter cells (luciferase); assay type: cell-based; conditions: for inhibition at 3 µM: Human immunodeficiency virus 1, NL43, TZM-b1, 48 h, read-out: INFECTIVITY @ 3 μM % Inhibition vs. DMSO control; for INFECTIVITY @ 3 μM % Inhibition vs. DMSO control: TZM-b1 reporter cells
Experimental: Compounds (1 μM) shown in FIG. 7 were added to cultures of U87MG and CEM-T4 cells in 96-well plates, followed by infection with wild-type HIV-1 NL4-3 (50 pg p24 equivalents/ml) 1 hour later. […] Virus replication was assessed by p24 ELISA after 4 days (U87MG) or 9 days (CEM-T4). Data are expressed as the mean percent inhibition as compared to control cultures incubated with the carrier solvent (DMSO)±S.E.M. (n=4). […] FIG. 9 concerns infectivity assays. Compounds (3 μM) were added to cultures of the reporter cell line TZM-b1 followed by infection with either wild-type or Nef-defective (ΔNef) HIV NL4-3 in 96-well plates. After 48 hours, relative virus infectivity was assessed as luciferase production in infected cells. […]
HIV assays: Viral stocks were prepared by transfection of 293T cells (ATCC) with wild-type and Nef-defective (ΔNef) proviral genomes (NL4—3 strain) and amplified in the T-cell line, MT2 (NIH AIDS Research and Reference Reagent Program). Viral replication was assessed in the U87MG astroglioma cell line engineered to express the HIV-1 co-receptors CD4 and CXCR4 or in the T-lymphoblast cell line, CEM-T4. […] Compounds were solubilized in DMSO, and added to the cell culture medium 1 h prior to infection with HIV. Viral replication was monitored for either 4 days (U87MG) or 9 days (CEM-T4) by measuring p24 Gag protein levels in the culture supernatant using standard ELISA-based techniques. HIV-1 infectivity was measured using the reporter cell line, TZM-b1 (NM AIDS Research and Reference Reagent Program). Cells were grown in 96-well plates (2.5×10^4) 8 h prior to virus infection to permit adherence. Compounds were pre-incubated with wild-type HIV-1 for 4 h prior to addition to the cells in a final volume of 200 μl. After 48 h at 37° C., the cells were washed with PBS and lysed in luciferase lysis buffer (Promega) by rocking for 15 min Lysates (40 μl) were transferred to white 96-well plates and 50 μl luciferase reagent (Promega) was injected into each well. Readings were recorded with a delay time of 2 sec and an integration period of 10 sec.

[2] = tested on: wild-type HIV-1 NL4-3; experiment: HIV-1 replication in U87MG cells (p24 ELISA); assay type: cell-based; conditions: for inhibition at 3 µM: Human immunodeficiency virus 1, NL43, U-87 MG, 96 h, read-out: REPLICATION @ 3 μM % Inhibition vs. DMSO control; for REPLICATION @ 3 μM % Inhibition vs. DMSO control: U87MG cells
Text: In particular disclosed embodiments, the compound may be used to block Nef-dependent HIV replication and infectivity. FIG. 7 illustrates the chemical structures of the compounds identified by the Nef:Hck HTS campaign and subsequently shown to block Nef-dependent enhancement of HIV-1 replication in two different cell lines are shown, along with the IC50 values for each compound against Hck alone vs. the Nef:Hck complex. FIG. 8 illustrates results concerning HIV replication. […] Viral output for the DMSO-treated control cultures was consistently greater than 100-fold over the HIV input, typically ranging from 9,000-12,000 p24 equivalents/ml. Virus replication was assessed by p24 ELISA after 4 days (U87MG) or 9 days (CEM-T4). Data are expressed as the mean percent inhibition as compared to control cultures incubated with the carrier solvent (DMSO)±S.E.M. (n=4). Results of replication and cytotoxicity experiments with all certain hit compounds from the primary screen are shown in FIG. 3 and FIG. 4. FIG. 9 concerns infectivity assays. Compounds (3 μM) were added to cultures of the reporter cell line TZM-b1 followed by infection with either wild-type or Nef-defective (ΔNef) HIV NL4-3 in 96-well plates. After 48 hours, relative virus infectivity was assessed as luciferase production in infected cells. Results are plotted as the mean percent of HIV-1 infectivity observed in control cells incubated with the carrier solvent DMSO±S.E.M. (n=3). In the absence of Nef, infectivity is reduced by about 50% (ΔNef; dashed line shown for reference).
HIV assays: Viral stocks were prepared by transfection of 293T cells (ATCC) with wild-type and Nef-defective (ΔNef) proviral genomes (NL4—3 strain) and amplified in the T-cell line, MT2 (NIH AIDS Research and Reference Reagent Program). Viral replication was assessed in the U87MG astroglioma cell line engineered to express the HIV-1 co-receptors CD4 and CXCR4 or in the T-lymphoblast cell line, CEM-T4. Both the U87 MG and CEM-T4 cell lines support HIV-1 replication in a Nef-dependent manner, and were obtained from the NM AIDS Research and Reference Reagent Program. Compounds were solubilized in DMSO, and added to the cell culture medium 1 h prior to infection with HIV. Viral replication was monitored for either 4 days (U87MG) or 9 days (CEM-T4) by measuring p24 Gag protein levels in the culture supernatant using standard ELISA-based techniques. HIV-1 infectivity was measured using the reporter cell line, TZM-b1 (NM AIDS Research and Reference Reagent Program). Cells were grown in 96-well plates (2.5×10^4) 8 h prior to virus infection to permit adherence. Compounds were pre-incubated with wild-type HIV-1 for 4 h prior to addition to the cells in a final volume of 200 μl. After 48 h at 37° C., the cells were washed with PBS and lysed in luciferase lysis buffer (Promega) by rocking for 15 min Lysates (40 μl) were transferred to white 96-well plates and 50 μl luciferase reagent (Promega) was injected into each well. Readings were recorded with a delay time of 2 sec and an integration period of 10 sec.

| Compound | inhibition at 3 µM [1] | other results |
| --- | --- | --- |
| N=C(N)n1nc(-c2ccc(F)cc2)c(Cc2cccc(Cl)c2)c1O [DD-1-21] | 0% |  |
| Oc1c(Cc2cccc(Cl)c2)c(-c2ccc(F)cc2)nn1C1=NCCN1 [DD-1-22] | 0% |  |
| Cc1c(Cc2cccc(Cl)c2)c(-c2ccccc2)nn1C(=N)N [DD-1-26] | 0% |  |
| COc1ccc(-c2nn(C(=N)N)c(O)c2Cc2cccc(Cl)c2)cc1 [DD-1-27] | 0% |  |
| Nc1c(Cc2cccc(Cl)c2)c(-c2ccc(F)cc2)nn1C1=NCCN1 [DD-1-30] | 0% |  |
| COc1cccc(Cc2c(-c3ccc([N+](=O)[O-])cc3)nn(C(=N)N)c2O)c1 [EAF-1-21] | 0% |  |
| COc1cccc(Cc2c(-c3ccc(F)cc3)nn(C(=N)N)c2O)c1 [EAF-1-22] | 0% |  |
| COc1ccc(-c2n[nH]c(O)c2CCc2cccc(Cl)c2)cc1 [JV-1-59-1] | 0% | inhibition at 3 µM [2]: 30.1% |
| N=C(N)n1nc(-c2ccc([N+](=O)[O-])cc2)c(CCc2cccc(Cl)c2)c1O [JV-1-62-2-1] | 0% | inhibition at 3 µM [2]: 53.2% |
| N=C(N)n1nc(-c2ccc([N+](=O)[O-])cc2)cc1O [JV-1-62-2-2] | 0% |  |
| COc1ccc(-c2nn(C(=N)N)c(O)c2CCc2cccc(OC)c2)cc1 [JV-1-67-1] | 0% |  |
| COc1ccc(-c2nn(C3=NCCN3)c(O)c2CCc2cccc(OC)c2)cc1 [JV-1-71-1] | 25.2% |  |
| COc1ccc(-c2nn(C(=N)N)c(O)c2CCc2ccc(F)cc2)cc1 [JV-1-74-1] | 0% | inhibition at 3 µM [2]: 27.8% |
| COc1ccc(-c2nn(C3=NCCN3)c(O)c2CCc2ccc(F)cc2)cc1 [JV-1-74-2] | 36.7% | inhibition at 3 µM [2]: 46.8% |
| COc1ccc(-c2n[nH]c(O)c2CCc2ccc(F)cc2)cc1 [JV-1-75-1] | 0% |  |
| COc1ccc(-c2nn(-c3ccccc3)c(O)c2CCc2ccc(F)cc2)cc1 [JV-1-79] |  | INFECTIVITY @ 3 μM % Inhibition vs. DMSO control [1]: Toxic; REPLICATION @ 3 μM % Inhibition vs. DMSO control [2]: Toxic |
| COc1ccc(-c2nn(-c3ccccn3)c(O)c2CCc2ccc(F)cc2)cc1 [JV-1-80] |  | INFECTIVITY @ 3 μM % Inhibition vs. DMSO control [1]: Toxic; REPLICATION @ 3 μM % Inhibition vs. DMSO control [2]: Toxic |
| COc1ccc(-c2nn(-c3ccccc3)c(OC)c2CCc2ccc(F)cc2)cc1 [JV-1-81] | 19.7% |  |
| Cc1nn(C(=N)N)c(O)c1CCc1ccc(F)cc1 [JV-1-87] |  | INFECTIVITY @ 3 μM % Inhibition vs. DMSO control [1]: 0.0% |
| N=C(N)n1nc(C2CC2)c(CCc2ccc(F)cc2)c1O [JV-1-89] |  | INFECTIVITY @ 3 μM % Inhibition vs. DMSO control [1]: 28.0%; REPLICATION @ 3 μM % Inhibition vs. DMSO control [2]: 56.1% |
| COc1ccc(-c2nn(C(N)=S)c(O)c2CCc2ccc(F)cc2)cc1 [JV-1-94] |  | INFECTIVITY @ 3 μM % Inhibition vs. DMSO control [1]: 0.0% |
| N=C(N)n1nc(-c2ccoc2)c(CCc2ccc(F)cc2)c1O [JV-1-96] |  | INFECTIVITY @ 3 μM % Inhibition vs. DMSO control [1]: 11.0%; REPLICATION @ 3 μM % Inhibition vs. DMSO control [2]: Toxic |
| N=C(N)n1nc(-c2ccc(C(F)(F)F)cc2)c(Cc2cccc(Cl)c2)c1O [JV-2-9-1] | 0% |  |
| N=C(N)n1nc(-c2ccc([N+](=O)[O-])cc2)c(Cc2cccc(Cl)c2)c1O [JV-2-10] | 3% |  |
| NC(=S)n1nc(-c2ccc(C(F)(F)F)cc2)c(Cc2cccc(Cl)c2)c1O [JV-2-12] | 41.7% |  |
| O=[N+]([O-])c1ccc(-c2n[nH]c(O)c2Cc2ccc(F)cc2)cc1 [JV-2-13] | 1.7% |  |

| Compound | inhibition at 3 µM [1] | other results |
| --- | --- | --- |
| Oc1c(Cc2cccc(Cl)c2)c(-c2ccc(C(F)(F)F)cc2)nn1C1=NCCN1 [JV-2-14] | 54.7% |  |
| N=C(N)n1nc(-c2ccccc2)c(Cc2cccc(Cl)c2)c1N [JV-2-16] | 0% |  |
| N=C(N)n1nc(-c2ccc(F)cc2)c(Cc2cccc(Cl)c2)c1N [JV-2-19] | 0% |  |
| COc1ccccc1/N=N/c1c(-c2ccc([N+](=O)[O-])cc2)nn(C(N)=S)c1O [JZ-1-49] | 0% |  |
| COc1ccc(/N=N/c2c(-c3ccc([N+](=O)[O-])cc3)n[nH]c2O)cc1 [JZ-1-50] | 28.9% |  |
| COc1cccc(/N=N/c2c(-c3ccc([N+](=O)[O-])cc3)nn(C(N)=S)c2O)c1 [JZ-1-56] | 0% |  |
| Oc1[nH]nc(-c2ccccc2)c1/N=N/c1ccccc1 [JZ-1-58-2] | 1.7% |  |
| NC(=S)n1nc(-c2ccccc2)c(/N=N/c2ccccc2)c1O [JZ-1-58-3] | 7.3% |  |
| COc1ccc(-c2nn(C(N)=S)c(O)c2/N=N/c2cccc(Cl)c2)cc1 [JZ-1-62] | 9.3% |  |
| NC(=S)n1nc(-c2ccc(C(F)(F)F)cc2)c(/N=N/c2cccc(Cl)c2)c1O [JZ-1-64] | 26.5% |  |
| NC(=S)n1nc(-c2ccc([N+](=O)[O-])cc2)cc1O [JZ-1-94] | 0% |  |
| O=[N+]([O-])c1ccc(-c2n[nH]c(O)c2Cc2cccc(Cl)c2)cc1 [JZ-1-97-2-2] | 12.7% | inhibition at 3 µM [2]: 0% |
| NC(=O)n1nc(-c2ccc(F)cc2)c(/N=N/c2cccnc2)c1O [JZ-1-101] | 0% | inhibition at 3 µM [2]: 0% |
| NC(=O)n1nc(-c2ccc(F)cc2)c(/N=N/c2cncc(Cl)c2)c1O [JZ-1-106] | 3.5% | inhibition at 3 µM [2]: 0% |
| COc1ccc(-c2nn(-c3ccccc3)c(OC)c2/C=C/c2ccccc2)cc1 [JZ-1-145-1] | 0% |  |
| COc1ccc(-c2nn(-c3ccccc3)c(OC)c2/C=C/c2cccc(F)c2)cc1 [JZ-1-146-1] | 0% |  |
| COc1ccc(-c2nn(C(=N)N3CCOCC3)c(O)c2CCc2ccc(F)cc2)cc1 [JZ-1-154-2-2] | 0% |  |
| O=[N+]([O-])c1ccc(-c2nn(C3=NCCN3)c(O)c2Cc2ccc(F)cc2)cc1 [JZ-1-171] | 0% |  |
| N=C(N)n1nc(-c2ccc(F)cc2)c(Cc2ccc(F)cc2)c1O [JZ-1-175] | 0% |  |
| Oc1c(Cc2ccc(F)cc2)c(-c2ccc(F)cc2)nn1C1=NCCN1 [JZ-1-176] | 7.7% |  |
| N=C(N)n1nc(-c2ccc(C(F)(F)F)cc2)c(Cc2ccc(F)cc2)c1O [JZ-1-177] | 0% |  |
| Oc1[nH]nc(-c2ccc(C(F)(F)F)cc2)c1Cc1ccc(F)cc1 [JZ-1-179-2] | 0% |  |
| N=C(N1CCOCC1)n1nc(-c2ccc(C(F)(F)F)cc2)c(Cc2ccc(F)cc2)c1O [JZ-1-180] | 0% |  |
| NC(=S)n1nc(-c2ccc([N+](=O)[O-])cc2)c(/N=N/c2ccccc2Cl)c1O [KM-1-48] | 19.3% |  |
| C(=C\c1c[nH]nc1-c1ccccc1)/c1ccccc1 [Vit-3f] | 0% |  |
